Data: US9845310B2 (priority 2015, dated 2017)
pEC50: −log10 of the molar value.

Molecular target: APJ (Homo sapiens (Human), UniProt P35414)
Test: [35S]GTPγS binding assay on membranes from CHO cells stably expressing human APJ receptor
Type: biochemical
Settings: Activity hAPJ SPA EC50 IP (μM)

APJ, sequence (P35414 whole entry): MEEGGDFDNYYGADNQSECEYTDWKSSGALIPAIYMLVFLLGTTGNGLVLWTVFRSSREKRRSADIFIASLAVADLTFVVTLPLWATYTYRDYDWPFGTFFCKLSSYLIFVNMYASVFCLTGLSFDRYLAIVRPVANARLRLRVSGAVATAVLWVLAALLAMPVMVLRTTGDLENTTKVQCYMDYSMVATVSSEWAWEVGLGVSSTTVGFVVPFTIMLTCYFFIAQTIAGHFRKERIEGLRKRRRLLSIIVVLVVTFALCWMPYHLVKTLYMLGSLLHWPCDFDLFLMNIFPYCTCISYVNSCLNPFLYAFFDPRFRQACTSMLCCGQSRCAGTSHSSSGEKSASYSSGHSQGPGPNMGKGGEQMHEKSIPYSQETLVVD

First: COc1cccc(-c2nnc(NS(=O)(=O)C[C@H](O)c3ccc(F)cc3S(C)(=O)=O)n2-c2c(OC)cccc2OC)n1 (mixture of isomers) [Example 267.0, (R)-N-(4-(2,6-dimethoxyphenyl)-5-(6-methoxypyridin-2-yl)-4H-1,2,4-triazol-3-yl)-2-(4-fluoro-2-(methylsulfonyl)phenyl)-2-hydroxyethanesulfonamide and (S)-N-(4-(2,6-dimethoxyphenyl)-5-(6-methoxypyridin-2-yl)-4H-1,2,4-triazol-3-yl)-2-(4-fluoro-2-(methylsulfonyl)phenyl)-2-hydroxyethanesulfonamide]
Second: COc1cccc(-c2nnc(NS(=O)(=O)C[C@H](O)c3ccc(C#N)cc3S(C)(=O)=O)n2-c2c(OC)cccc2OC)n1 (mixture of isomers) [Example 481.0, (2S)-2-(4-cyano-2-(methylsulfonyl)phenyl)-N-(4-(2,6-dimethoxyphenyl)-5-(6-methoxy-2-pyridinyl)-4H-1,2,4-triazol-3-yl)-2-hydroxyethanesulfonamide and (2R)-2-(4-cyano-2-(methylsulfonyl)phenyl)-N-(4-(2,6-dimethoxyphenyl)-5-(6-methoxy-2-pyridinyl)-4H-1,2,4-triazol-3-yl)-2-hydroxyethanesulfonamide]
The EC50 of the first is 1.6-fold lower: 0.00015 µM for the first, 0.00024 µM for the second. The first is the more potent here.

Compared with `COc1cccc(-c2nnc(NS(=O)(=O)[C@@H](C)[C@H](O)c3ccc(F)cc3)n2-c2c(OC)cccc2OC)n1` (mixture of isomers) [Example 283.0], `COc1cccc(-c2nnc(NS(=O)(=O)[C@H](C)[C@@H](O)C3CC3)n2-c2c(OC)cccc2OC)n1` (mixture of isomers) [Example 438.0] is 54-fold higher in EC50: 0.00096 µM for the first, 0.052 µM for the second. The first is the more potent here.

`COc1cccc(-c2nnc(NS(=O)(=O)C[C@H](O)c3ccc(F)cn3)n2-c2c(OC)cccc2OC)n1` (mixture of isomers) [Example 315.0, (2R)-N-(4-(2,6-dimethoxyphenyl)-5-(6-methoxy-2-pyridinyl)-4H-1,2,4-triazol-3-yl)-2-(5-fluoro-2-pyridinyl)-2-hydroxyethanesulfonamide and (2S)-N-(4-(2,6-dimethoxyphenyl)-5-(6-methoxy-2-pyridinyl)-4H-1,2,4-triazol-3-yl)-2-(5-fluoro-2-pyridinyl)-2-hydroxyethanesulfonamide] and `COc1cccc(-c2nnc(NS(=O)(=O)C[C@H](OC)c3ccc(F)cn3)n2-c2c(OC)cccc2OC)n1` (mixture of isomers) [Example 328.0, (2R)-N-(4-(2,6-dimethoxyphenyl)-5-(6-methoxy-2-pyridinyl)-4H-1,2,4-triazol-3-yl)-2-(5-fluoro-2-pyridinyl)-2-methoxyethanesulfonamide and (2S)-N-(4-(2,6-dimethoxyphenyl)-5-(6-methoxy-2-pyridinyl)-4H-1,2,4-triazol-3-yl)-2-(5-fluoro-2-pyridinyl)-2-methoxyethanesulfonamide] are within 1.5-fold of each other in EC50: 0.00032 µM for the first, 0.00033 µM for the second.

`COc1cccc(-c2nnc(NS(=O)(=O)C[C@H](O)c3ccc(C#N)cn3)n2-c2c(OC)cccc2OC)n1` (mixture of isomers) [Example 331.0, (R)-2-(5-cyanopyridin-2-yl)-N-(4-(2,6-dimethoxyphenyl)-5-(6-methoxypyridin-2-yl)-4H-1,2,4-triazol-3-yl)-2-hydroxyethanesulfonamide and (S)-2-(5-cyanopyridin-2-yl)-N-(4-(2,6-dimethoxyphenyl)-5-(6-methoxypyridin-2-yl)-4H-1,2,4-triazol-3-yl)-2-hydroxyethanesulfonamide] and `COc1cccc(-c2nnc(NS(=O)(=O)C[C@H](OC)c3ccc(C#N)cc3S(C)(=O)=O)n2-c2c(OC)cccc2OC)n1` (mixture of isomers) [Example 484.0, (2R)-2-(4-cyano-2-(methylsulfonyl)phenyl)-N-(4-(2,6-dimethoxyphenyl)-5-(6-methoxy-2-pyridinyl)-4H-1,2,4-triazol-3-yl)-2-methoxyethanesulfonamide and (2S)-2-(4-cyano-2-(methylsulfonyl)phenyl)-N-(4-(2,6-dimethoxyphenyl)-5-(6-methoxy-2-pyridinyl)-4H-1,2,4-triazol-3-yl)-2-methoxyethanesulfonamide] are within 1.5-fold of each other in EC50: 0.00024 µM for the first, 0.00026 µM for the second.

Going from `COc1cccc(OC)c1-n1c(NS(=O)(=O)C[C@H](O)c2ccc(Cl)cc2S(C)(=O)=O)nnc1-c1cncc(C)c1` (mixture of isomers) [Example 457.0, (2R)-2-(4-chloro-2-(methylsulfonyl)phenyl)-N-(4-(2,6-dimethoxyphenyl)-5-(5-methyl-3-pyridinyl)-4H-1,2,4-triazol-3-yl)-2-hydroxyethanesulfonamide and (2S)-2-(4-chloro-2-(methylsulfonyl)phenyl)-N-(4-(2,6-dimethoxyphenyl)-5-(5-methyl-3-pyridinyl)-4H-1,2,4-triazol-3-yl)-2-hydroxyethanesulfonamide] to `COc1cccc(OC)c1-n1c(NS(=O)(=O)[C@@H](C)[C@H](OC)c2ccc(Cl)cn2)nnc1-c1cccnc1` (mixture of isomers) [Example 529.0, (1S,2R)-1-(5-chloro-2-pyridinyl)-N-(4-(2,6-dimethoxyphenyl)-5-(3-pyridinyl)-4H-1,2,4-triazol-3-yl)-1-methoxy-2-propanesulfonamide and (1R,2S)-1-(5-chloro-2-pyridinyl)-N-(4-(2,6-dimethoxyphenyl)-5-(3-pyridinyl)-4H-1,2,4-triazol-3-yl)-1-methoxy-2-propanesulfonamide], the EC50 rises from 0.0003 µM to 0.00048 µM (1.6-fold). The first is the more potent here.

With `COc1cnc([C@H](O)[C@@H](C)S(=O)(=O)Nc2nnc(-c3cccnc3)n2-c2c(OC)cccc2OC)cn1` (mixture of isomers) [Example 703.0, (1R,2S)-N-(4-(2,6-dimethoxyphenyl)-5-(3-pyridinyl)-4H-1,2,4-triazol-3-yl)-1-hydroxy-1-(5-methoxy-2-pyrazinyl)-2-propanesulfonamide and (1S,2R)-N-(4-(2,6-dimethoxyphenyl)-5-(3-pyridinyl)-4H-1,2,4-triazol-3-yl)-1-hydroxy-1-(5-methoxy-2-pyrazinyl)-2-propanesulfonamide] the EC50 was 0.002 µM.

Same assay, conditions: read-out: Activity hAPJ SPA EC50 IP

Going from `CCNC(=O)c1cccc(-c2nnc(NS(=O)(=O)[C@@H](C)Cc3ncc(F)cn3)n2-c2c(OC)cccc2OC)n1` (mixture of isomers) [Example 228.0, 6-(4-(2,6-dimethoxyphenyl)-5-((((1S)-2-(5-fluoro-2-pyrimidinyl)-1-methylethyl)sulfonyl)amino)-4H-1,2,4-triazol-3-yl)-N-ethyl-2-pyridinecarboxamide and 6-(4-(2,6-dimethoxyphenyl)-5-((((1R)-2-(5-fluoro-2-pyrimidinyl)-1-methylethyl)sulfonyl)amino)-4H-1,2,4-triazol-3-yl)-N-ethyl-2-pyridinecarboxamide] to `COc1cccc(-c2nnc(NS(=O)(=O)[C@H](C)[C@@H](O)c3cn(C)cn3)n2-c2c(OC)cccc2OC)n1` (mixture of isomers) [Example 258.0, (1S,2R)-N-(4-(2,6-dimethoxyphenyl)-5-(6-methoxypyridin-2-yl)-4H-1,2,4-triazol-3-yl)-1-hydroxy-1-(1-methyl-1H-imidazol-4-yl)propane-2-sulfonamide and (1R,2S)-N-(4-(2,6-dimethoxyphenyl)-5-(6-methoxypyridin-2-yl)-4H-1,2,4-triazol-3-yl)-1-hydroxy-1-(1-methyl-1H-imidazol-4-yl)propane-2-sulfonamide], the pEC50 rises from 8.28 to 8.70 (0.42 log units). The second is the more potent here.

Compared with `COc1cccc(OC)c1-n1c(NS(=O)(=O)[C@@H](C)[C@H](O)c2ccc(C#N)cc2)nnc1-c1cncc(C)c1` (mixture of isomers) [Example 247.0, (1R,2S)-1-(4-cyanophenyl)-N-(4-(2,6-dimethoxyphenyl)-5-(5-methyl-3-pyridinyl)-4H-1,2,4-triazol-3-yl)-1-hydroxy-2-propanesulfonamide and (1S,2R)-1-(4-cyanophenyl)-N-(4-(2,6-dimethoxyphenyl)-5-(5-methyl-3-pyridinyl)-4H-1,2,4-triazol-3-yl)-1-hydroxy-2-propanesulfonamide], `COc1cccc(-c2nnc(NS(=O)(=O)[C@@H](C)[C@H](OC)c3ccc(C#N)cc3C#N)n2-c2c(OC)cccc2OC)n1` (mixture of isomers) [Example 473.0] is 1.22 log units higher in pEC50: 8.42 for the first, 9.64 for the second. The second is the more potent here.

First: COc1cccc(-c2nnc(NS(=O)(=O)[C@H](C)[C@@H](O)c3cn4ccccc4n3)n2-c2c(OC)cccc2OC)n1 (mixture of isomers) [Example 256.0, (1S,2R)-N-(4-(2,6-dimethoxyphenyl)-5-(6-methoxypyridin-2-yl)-4H-1,2,4-triazol-3-yl)-1-hydroxy-1-(imidazo[1,2-a]pyridin-2-yl)propane-2-sulfonamide and (1R,2S)-N-(4-(2,6-dimethoxyphenyl)-5-(6-methoxypyridin-2-yl)-4H-1,2,4-triazol-3-yl)-1-hydroxy-1-(imidazo[1,2-a]pyridin-2-yl)propane-2-sulfonamide]
Second: COc1cccc(-c2nnc(NS(=O)(=O)C[C@@H](O)c3cn4ccccc4n3)n2-c2c(OC)cccc2OC)n1 (mixture of isomers) [Example 257.0, (S)-N-(4-(2,6-dimethoxyphenyl)-5-(6-methoxypyridin-2-yl)-4H-1,2,4-triazol-3-yl)-2-hydroxy-2-(imidazo[1,2-a]pyridin-2-yl)ethanesulfonamide and (R)-N-(4-(2,6-dimethoxyphenyl)-5-(6-methoxypyridin-2-yl)-4H-1,2,4-triazol-3-yl)-2-hydroxy-2-(imidazo[1,2-a]pyridin-2-yl)ethanesulfonamide]
The pEC50 of the first is 0.26 log units higher: 9.40 for the first, 9.14 for the second.

Compound `COc1cccc(-c2nnc(NS(=O)(=O)[C@H](C)[C@H](O)c3cn(C)cn3)n2-c2c(OC)cccc2OC)n1` (mixture of isomers) [Example 259.0, (1R,2R)-N-(4-(2,6-dimethoxyphenyl)-5-(6-methoxypyridin-2-yl)-4H-1,2,4-triazol-3-yl)-1-hydroxy-1-(1-methyl-1H-imidazol-4-yl)propane-2-sulfonamide and (1S,2S)-N-(4-(2,6-dimethoxyphenyl)-5-(6-methoxypyridin-2-yl)-4H-1,2,4-triazol-3-yl)-1-hydroxy-1-(1-methyl-1H-imidazol-4-yl)propane-2-sulfonamide] has a pEC50 of 7.96.
